Molecules are shown by their SMILES.

This experiment deals with T1, USP28 (His-tagged USP28-FL-mammalian) (Homo sapiens, UniProt Q96RU2).
T1 construct: Expression of USP28 (1-1077)-TEV-6*His (pTT5 vector); made in house; host or cells: Expi293f cells (pTT5 vector)
T1 sequence (Q96RU2 1-1077): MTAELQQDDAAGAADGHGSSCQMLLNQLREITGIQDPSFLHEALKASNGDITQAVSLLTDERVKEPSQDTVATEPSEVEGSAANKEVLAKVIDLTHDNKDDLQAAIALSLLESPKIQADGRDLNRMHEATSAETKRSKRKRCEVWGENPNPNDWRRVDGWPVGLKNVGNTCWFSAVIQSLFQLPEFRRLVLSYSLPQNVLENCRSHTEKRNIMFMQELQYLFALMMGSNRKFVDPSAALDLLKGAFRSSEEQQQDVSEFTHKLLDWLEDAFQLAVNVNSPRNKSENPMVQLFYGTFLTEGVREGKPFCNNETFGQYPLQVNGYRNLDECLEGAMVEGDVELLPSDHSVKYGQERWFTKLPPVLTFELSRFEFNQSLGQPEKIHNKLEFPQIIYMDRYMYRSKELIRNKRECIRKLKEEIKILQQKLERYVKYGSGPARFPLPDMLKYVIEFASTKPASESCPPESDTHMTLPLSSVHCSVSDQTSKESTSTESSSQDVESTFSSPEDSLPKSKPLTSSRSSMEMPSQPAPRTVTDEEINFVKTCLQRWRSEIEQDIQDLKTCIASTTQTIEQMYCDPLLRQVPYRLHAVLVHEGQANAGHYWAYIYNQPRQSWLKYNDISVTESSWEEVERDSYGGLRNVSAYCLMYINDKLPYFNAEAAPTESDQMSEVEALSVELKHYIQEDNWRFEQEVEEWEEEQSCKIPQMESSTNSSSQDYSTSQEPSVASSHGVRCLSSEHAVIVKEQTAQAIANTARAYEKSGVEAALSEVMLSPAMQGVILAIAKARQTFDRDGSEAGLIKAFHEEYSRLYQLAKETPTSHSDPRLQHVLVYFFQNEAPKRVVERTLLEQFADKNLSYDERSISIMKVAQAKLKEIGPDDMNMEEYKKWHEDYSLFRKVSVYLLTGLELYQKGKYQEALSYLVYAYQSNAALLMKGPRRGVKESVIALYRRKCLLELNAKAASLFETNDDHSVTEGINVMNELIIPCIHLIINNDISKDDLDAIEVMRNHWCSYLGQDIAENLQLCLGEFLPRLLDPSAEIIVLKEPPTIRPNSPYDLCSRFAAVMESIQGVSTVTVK
Briefly: Ubiquitin-Rhodamine 110 Assay for USP28 Activity, Example A-1(a). The experiment is classed as biochemical. Particulars: Ubiquitin-Rhodamine 110 assay, Example A-1(a); read-out: USP28 A-1(a) IC50 range. The gist of the method:
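Full-length His-tagged human USP28 (1-1077, Expi293f-expressed), […], with 25 nM Ub-Rh110 (<<Km) in pH 8.0 Tris buffer with BME, BGG, Triton X-100. 10-point dilutions (25 μM-1.3 nM), 45 min at room temperature, citric acid stop, fluorescence 485/535 nm; IC50 by 4-parameter fit.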
On to `CO[C@@H]1CN(c2cc3c(c(F)c2F)C[C@@H](NC(=O)c2sc4nc(C)ccc4c2N)CO3)C[C@H]1N` [Example 415, 3-amino-N-[(3R)-7-[(3R,4R)-3-amino-4-methoxypyrrolidin-1-yl]-5,6-difluoro-3,4-dihydro-2H-1-benzopyran-3-yl]-6-methylthieno[2,3-b]pyridine-2-carboxamide], for which the IC50 fell in the range of 1 to 50 nM. As to `O=C(N[C@H]1COc2cc(N3CCNCC3)ccc2C1)c1cnn2c(CO)cccc12` [Example 475, 7-(hydroxymethyl)-N-[(3R)-7-(piperazin-1-yl)-3,4-dihydro-2H-1-benzopyran-3-yl]pyrazolo[1,5-a]pyridine-3-carboxamide], the 50% inhibitory concentration (IC50) lay within 200 to 2000 nM. Under `Cc1ccc2c(N)c(C(=O)N[C@H]3COc4cc(N5CC[C@H](C(=O)O)C5)ccc4C3)sc2n1` [Example 6-3, (S)-1-((R)-3-(3-amino-6-methylthieno[2,3-b]pyridine-2-carboxamido)chroman-7-yl)pyrrolidine-3-carboxylic acid] stands 50 to 200 nM.

`Cc1ccc2c(N)c(C(=O)N[C@H]3COc4cc(N5CCC(F)(F)CC5)ccc4C3)sc2n1` [Example 5-1, (R)-3-amino-N-(7-(4,4-difluoropiperidin-1-yl)chroman-3-yl)-6-methylthieno[2,3-b]pyridine-2-carboxamide]: the half-inhibitory concentration (IC50) was in the range of 1 to 50 nM.

For `Cc1cnc2c(N)c(C(=O)N[C@@H]3CCc4cc(N5CCCNCC5)ccc4C3)sc2n1` [Example 452, (R)-N-(6-(1,4-diazepan-1-yl)-1,2,3,4-tetrahydronaphthalen-2-yl)-7-amino-3-methylthieno[2,3-b]pyrazine-6-carboxamide], the IC50 lay in the range of 200 to 2000 nM.

Consider `O=C(N[C@@H]1CCc2c(c(F)cc(N3CC4CCC(C3)N4)c2C(F)F)C1)c1cnc2c(c1)[C@H]1C[C@H]1CN2` (single isomer, unassigned) [Example 362], for which the IC50 was 200 to 2000 nM. Turning to `Cc1ccc2c(N)c(C(=O)N[C@H]3COc4cc(N5C[C@@H](N)[C@H](OC(F)(F)F)C5)ccc4C3)sc2n1` (single isomer, unassigned) [Example 3-9], the IC50 lay in the range of 50 to 200 nM. Under `Cc1cnc2c(N)c(C(=O)N[C@H]3CCc4nc(N5C[C@@H](N)C6(COC6)C5)ccc4C3)sc2n1` [Example 366, 7-amino-N-[(6S)-2-[(8S)-8-amino-2-oxa-6-azaspiro[3.4]octan-6-yl]-5,6,7,8-tetrahydroquinolin-6-yl]-3-methylthieno[2,3-b]pyrazine-6-carboxamide] stands 200 to 2000 nM; under `Cc1ccc2c(N)c(C(=O)N[C@H]3CCc4nc(N5C[C@@H](N)[C@@]6(CCCO6)C5)ccc4C3)sc2n1` [Example 392, 3-amino-N-[(6S)-2-[(5R,9R)-9-amino-1-oxa-7-azaspiro[4.4]nonan-7-yl]-5,6,7,8-tetrahydroquinolin-6-yl]-6-methylthieno[2,3-b]pyridine-2-carboxamide], 200 to 2000 nM; under `CCn1cc(Cl)c2cc(C(=O)N[C@H]3COc4c(F)c(N5CC6CCC(C5)N6)cc(F)c4C3)nnc21` [Example 355, 5-chloro-N-[(3R)-7-{3,8-diazabicyclo[3.2.1]octan-3-yl}-5,8-difluoro-3,4-dihydro-2H-1-benzopyran-3-yl]-7-ethyl-7H-pyrrolo[2,3-c]pyridazine-3-carboxamide], 50 to 200 nM. Take `Cc1ccc2c(N)c(C(=O)N[C@H]3COc4cc(N5C[C@H](N)CC56COC6)ccc4C3)sc2n1` (single isomer, unassigned) [Example 351]: the 50% inhibitory concentration (IC50) fell in the range of 1 to 50 nM. Next, `Cc1ccc2c(N)c(C(=O)N[C@H]3CCc4nc(N5C[C@@H](N)[C@H](C(F)(F)F)C5)ccc4C3)sc2n1` [Example 364, 3-amino-N-[(6S)-2-[(3S,4R)-3-amino-4-(trifluoromethyl)pyrrolidin-1-yl]-5,6,7,8-tetrahydroquinolin-6-yl]-6-methylthieno[2,3-b]pyridine-2-carboxamide]: 50 to 200 nM; `O=C(N[C@H]1COc2cc(N3CCNCC3)ccc2C1)c1cnn2ccccc12` [Example 460, (R)-N-(7-(piperazin-1-yl)chroman-3-yl)pyrazolo[1,5-a]pyridine-3-carboxamide]: greater than 2000 nM. Turning to `Cc1ccc2c(N)c(C(=O)N[C@H]3CCc4nc(N5C[C@H](N)[C@H](C(F)F)C5)ccc4C3)sc2n1` [Example 345, 3-amino-N-[(6S)-2-[(3R,4R)-3-amino-4-(difluoromethyl)pyrrolidin-1-yl]-5,6,7,8-tetrahydroquinolin-6-yl]-6-methylthieno[2,3-b]pyridine-2-carboxamide], the concentration for half-maximal inhibition (IC50) fell in the range of 50 to 200 nM. Under `Cc1cnc2c(N)c(C(=O)N[C@H]3CCc4cc(N5CC(C(=O)O)C5)ccc4C3)sc2n1` [Example 6-4, (S)-1-(6-(7-amino-3-methylthieno[2,3-b]pyrazine-6-carboxamido)-5,6,7,8-tetrahydronaphthalen-2-yl)azetidine-3-carboxylic acid] stands 200 to 2000 nM. Next, `CC(=O)Nc1cccc(CNc2ccc(C(=O)N[C@H]3COc4cc(N5CCNCC5)ccc4C3)cn2)c1` [Example 473, (R)-6-((3-acetamidobenzyl)amino)-N-(7-(piperazin-1-yl)chroman-3-yl)nicotinamide]: greater than 2000 nM. Under `Cc1ccc2c(N)c(C(=O)N[C@H]3COc4cc(N5CCN[C@@H](C(F)(F)F)C5)ccc4C3)sc2n1` [Example 3-11, 3-amino-6-methyl-N-((R)-7-((R)-3-(trifluoromethyl)piperazin-1-yl)chroman-3-yl)thieno[2,3-b]pyridine-2-carboxamide] stands 50 to 200 nM.

Turning to `O=C(N[C@H]1CCc2c(c(F)cc(N3CC4CCC(C3)N4)c2C(F)F)C1)c1cnc2c(c1)[C@@H]1C[C@@H]1CN2` (single isomer, unassigned) [Example 359], the IC50 was greater than 2000 nM. Take `Cc1ccc2c(N)c(C(=O)N[C@H]3COc4cc(N5CC[C@@H](C(=O)O)C5)ccc4C3)sc2n1` [Example 6-2, (R)-1-((R)-3-(3-amino-6-methylthieno[2,3-b]pyridine-2-carboxamido)chroman-7-yl)pyrrolidine-3-carboxylic acid]: the IC50 was 50 to 200 nM. Next, `CN[C@H]1CN(c2ccc3c(c2)OC[C@H](NC(=O)c2sc4nc(C)ccc4c2N)C3)C[C@@H]1O` [Example 350, 3-amino-N-[(3R)-7-[(3S,4S)-3-hydroxy-4-(methylamino)pyrrolidin-1-yl]-3,4-dihydro-2H-1-benzopyran-3-yl]-6-methylthieno[2,3-b]pyridine-2-carboxamide]: 50 to 200 nM; `CCc1cccc2c(C(=O)N[C@H]3COc4cc(N5CCNCC5)ccc4C3)cnn12` [Example 474, 7-ethyl-N-[(3R)-7-(piperazin-1-yl)-3,4-dihydro-2H-1-benzopyran-3-yl]pyrazolo[1,5-a]pyridine-3-carboxamide]: 1 to 50 nM; `Cc1ccc2c(N)c(C(=O)N[C@H]3CCc4nc(N5C[C@H](N)[C@]6(CCCO6)C5)ccc4C3)sc2n1` [Example 390, 3-amino-N-[(6S)-2-[(5S,9S)-9-amino-1-oxa-7-azaspiro[4.4]nonan-7-yl]-5,6,7,8-tetrahydroquinolin-6-yl]-6-methylthieno[2,3-b]pyridine-2-carboxamide]: 200 to 2000 nM.

`Cc1ccc2c(N)c(C(=O)N[C@H]3COc4cc(N5CCN[C@H](C(F)(F)F)C5)ccc4C3)sc2n1` [Example 3-12, 3-amino-6-methyl-N-((R)-7-((S)-3-(trifluoromethyl)piperazin-1-yl)chroman-3-yl)thieno[2,3-b]pyridine-2-carboxamide]: the half-inhibitory concentration (IC50) lay within 50 to 200 nM. Under `Cc1cnc2c(N)c(C(=O)N[C@H]3CCc4cc(N5CCCNCC5)ccc4C3)sc2n1` [Example 455, (S)-N-(6-(1,4-diazepan-1-yl)-1,2,3,4-tetrahydronaphthalen-2-yl)-7-amino-3-methylthieno[2,3-b]pyrazine-6-carboxamide] stands 50 to 200 nM; under `O=C(N[C@H]1COc2cc(N3CCNCC3)ccc2C1)c1ccc(NCc2ccc3c(c2)CCO3)nc1` [Example 472, (R)-6-(((2,3-dihydrobenzofuran-5-yl)methyl)amino)-N-(7-(piperazin-1-yl)chroman-3-yl)nicotinamide], 200 to 2000 nM.

Usually IC50 stands for the midpoint of a concentration-inhibition curve.

Values taken from US11524966B1 (Valo Early Discovery, Inc., priority 2017, dated 2022).
